{"source": "patent US9175003B2", "about": "“Substituted azoanthracene derivatives and intermediates for preparation thereof” (TransTech Pharma, LLC, priority 2009, dated 2015)", "data": [{"biological_target": "human GLP-1 receptor (Homo sapiens (Human), UniProt P43220)", "sequence (P43220 24-463)": "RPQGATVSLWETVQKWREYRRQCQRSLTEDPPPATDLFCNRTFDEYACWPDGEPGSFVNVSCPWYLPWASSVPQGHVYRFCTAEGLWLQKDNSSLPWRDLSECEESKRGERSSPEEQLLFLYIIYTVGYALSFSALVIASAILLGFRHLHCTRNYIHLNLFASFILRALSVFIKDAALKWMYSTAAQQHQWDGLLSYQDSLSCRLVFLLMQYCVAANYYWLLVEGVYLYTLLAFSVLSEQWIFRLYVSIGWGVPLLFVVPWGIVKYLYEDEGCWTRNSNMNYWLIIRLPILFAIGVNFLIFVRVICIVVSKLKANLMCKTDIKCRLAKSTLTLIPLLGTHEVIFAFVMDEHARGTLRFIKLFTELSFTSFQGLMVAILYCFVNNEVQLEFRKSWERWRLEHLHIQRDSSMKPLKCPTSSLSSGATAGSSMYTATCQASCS", "conditions": "read-out: Mean EC50; cAMP, HTRF detection, 30 min at 37° C., HEK-293 cells expressing cloned human GLP-1 receptor", "units": {"EC50": "µM"}, "description": "Following overnight incubation of cells, media was removed, and compounds (at concentrations ranging from 0.0001 to 100 μM) were added to monolayer cells in Iscove's modified dulbecco's medium (IMDM), 100 μM RO 20-1724 PDE inhibitor, 0.1% BSA, 2% DMSO in a final volume of 100 μL, and incubated for 30 min at 37° C. […] Alternatively, cells were harvested and combined with compounds in suspension using the buffer and protocol described above. cAMP was quantified using a homogenous time-resolved fluorescence detection system (cAMP dynamic, CIS bio International).", "values": [{"smiles": "N#Cc1ccc(-c2ccc(C[C@H](NC(=O)[C@@H]3Cc4cc5c(cc4CN3C(=O)c3ccoc3)OC(c3ccc(OCc4ccc(Cl)c(Cl)c4)cc3)CO5)C(=O)O)cc2)cc1", "note": "(stereo in doubt) [Example 27, (S)-3-(4′-Cyano-biphenyl-4-yl)-2-{[(S)-3-[4-(3,4-dichloro-benzyloxy)-phenyl]-7-(furan-3-carbonyl)-2,3,6,7,8,9-hexahydro-[1,4]dioxino[2,3-g]isoquinoline-8-carbonyl]-amino}-propionic acid]", "EC50": 0.843}, {"smiles": "Cn1ccnc1CN1Cc2cc3c(cc2C[C@H]1C(=O)N[C@@H](Cc1ccc(-c2ccc(C#N)cc2)cc1)C(=O)O)OCC(c1ccc(OCc2ccc(Cl)c(Cl)c2)cc1)O3", "note": "(stereo in doubt) [Example 40, (S)-3-(4′-Cyano-biphenyl-4-yl)-2-{[(S)-3-[4-(3,4-dichloro-benzyloxy)-phenyl]-7-(1-methyl-1H-imidazol-2-ylmethyl)-2,3,6,7,8,9-hexahydro-[1,4]dioxino[2,3-g]isoquinoline-8-carbonyl]-amino}-propionic acid]", "EC50": 0.31}, {"smiles": "CC(=O)N1CC(c2ccc(OCc3ccc(Cl)c(Cl)c3)cc2)Oc2cc3c(cc21)C[C@@H](C(=O)N[C@@H](Cc1ccc(-c2ccc(C#N)cc2)cc1)C(=O)O)N(C(=O)c1ccccc1)C3", "note": "(stereo in doubt) [Example 53, (S)-2-({(S)-1-Acetyl-6-benzoyl-3-[4-(3,4-dichloro-benzyloxy)-phenyl]-2,3,5,6,7,8-hexahydro-1H-4-oxa-1,6-diaza-anthracene-7-carbonyl}-amino)-3-(4′-cyano-biphenyl-4-yl)-propionic acid]", "EC50": 0.38}, {"smiles": "Cc1nc(NC(=O)C2CCC2)sc1S(=O)(=O)N1Cc2cc3c(cc2C[C@H]1C(=O)N[C@@H](Cc1ccc(-c2ccc(C#N)cc2)cc1)C(=O)O)OCC(c1ccc(OCc2ccc(Cl)c(Cl)c2)cc1)O3", "note": "(stereo in doubt) [Example 55, (S)-3-(4′-Cyano-biphenyl-4-yl)-2-({(S)-7-[2-(cyclobutanecarbonyl-amino)-4-methyl-thiazole-5-sulfonyl]-3-[4-(3,4-dichloro-benzyloxy)-phenyl]-2,3,6,7,8,9-hexahydro[1,4]dioxino[2,3-g]isoquinoline-8-carbonyl}-amino)-propionic acid]", "EC50": 0.36}, {"smiles": "CCNc1nc(C)c(S(=O)(=O)N2Cc3cc4c(cc3C[C@H]2C(=O)N[C@@H](Cc2ccc(-c3ccc(C#N)cc3)cc2)C(=O)O)OCC(c2ccc(OCc3ccc(C)c(Cl)c3)cc2)O4)s1", "note": "(stereo in doubt) [Example 63, (S)-2-{[(S)-3-[4-(3-Chloro-4-methyl-benzyloxy)-phenyl]-7-(2-ethylamino-4-methyl-thiazole-5-sulfonyl)-2,3,6,7,8,9-hexahydro-[1,4]dioxino[2,3-g]isoquinoline-8-carbonyl]-amino}-3-(4′-cyano-biphenyl-4-yl)-propionic acid]", "EC50": 0.277}, {"smiles": "Cc1nc(NC(=O)C(F)(F)F)sc1S(=O)(=O)N1Cc2cc3c(cc2C[C@H]1C(=O)N[C@@H](Cc1ccc(-c2ccc(C#N)cc2)cc1)C(=O)O)OCC(c1ccc(OCc2ccc(Cl)c(Cl)c2)cc1)O3", "note": "(stereo in doubt) [Example 70, (S)-3-(4′-Cyano-biphenyl-4-yl)-2-({(S)-3-[4-(3,4-dichloro-benzyloxy)-phenyl]-7-[4-methyl-2-(2,2,2-trifluoro-acetylamino)-thiazole-5-sulfonyl]-2,3,6,7,8,9-hexahydro-[1,4]dioxino[2,3-g]isoquinoline-8-carbonyl}-amino)-propionic acid]", "EC50": 0.259}, {"smiles": "Cc1sc(N)nc1S(=O)(=O)N1Cc2cc3c(cc2C[C@H]1C(=O)N[C@@H](Cc1ccc(-c2ccc(C#N)cc2)cc1)C(=O)O)OCC(c1ccc(OCc2ccc(Cl)c(Cl)c2)cc1)O3", "note": "(stereo in doubt) [Example 95, (S)-2-({(S)-7-(2-Amino-5-methyl-thiazole-4-sulfonyl)-3-[4-(3,4-dichloro-benzyloxy)-phenyl]-2,3,6,7,8,9-hexahydro-[1,4]dioxino[2,3-g]isoquinoline-8-carbonyl}-amino)-3-(4′-cyano-biphenyl-4-yl)-propionic acid]", "EC50": 0.462}, {"smiles": "CCNc1nc(S(=O)(=O)N2Cc3cc4c(cc3C[C@H]2C(=O)N[C@@H](Cc2ccc(-c3ccc(C#N)cc3)cc2)C(=O)O)OCC(c2ccc(OCc3ccc(Cl)c(Cl)c3)cc2)O4)c(C)s1", "note": "(stereo in doubt) [Example 96, (S)-3-(4′-Cyano-biphenyl-4-yl)-2-{[(S)-3-[4-(3,4-dichloro-benzyloxy)-phenyl]-7-(2-ethylamino-5-methyl-thiazole-4-sulfonyl)-2,3,6,7,8,9-hexahydro-[1,4]dioxino[2,3-g]isoquinoline-8-carbonyl]-amino}-propionic acid]", "EC50": 0.185}, {"smiles": "Cc1nc(NCC2CCC2)sc1S(=O)(=O)N1Cc2cc3c(cc2C[C@H]1C(=O)N[C@@H](Cc1ccc(-c2ccc(C#N)cc2)cc1)C(=O)O)OCC(c1ccc(OCc2ccc(Cl)c(Cl)c2)cc1)O3", "note": "(stereo in doubt) [Example 105, (S)-3-(4′-Cyano-biphenyl-4-yl)-2-({(S)-7-[2-(cyclobutylmethyl-amino)-4-methyl-thiazole-5-sulfonyl]-3-[4-(3,4-dichloro-benzyloxy)-phenyl]-2,3,6,7,8,9-hexahydro-[1,4]dioxino[2,3-g]isoquinoline-8-carbonyl}-amino)-propionic acid]", "EC50": 0.321}, {"smiles": "CCCCNc1nc(C)c(S(=O)(=O)N2Cc3cc4c(cc3C[C@H]2C(=O)N[C@@H](Cc2ccc(-c3ccc(C#N)cc3)cc2)C(=O)O)OCC(c2ccc(OCc3ccc(Cl)c(Cl)c3)cc2)O4)s1", "note": "(stereo in doubt) [Example 109, (S)-2-({(S)-7-(2-Butylamino-4-methyl-thiazole-5-sulfonyl)-3-[4-(3,4-dichloro-benzyloxy)-phenyl]-2,3,6,7,8,9-hexahydro-[1,4]dioxino[2,3-g]isoquinoline-8-carbonyl}-amino)-3-(4′-cyano-biphenyl-4-yl)-propionic acid]", "EC50": 0.298}, {"smiles": "Cc1nc(NCCC(C)C)sc1S(=O)(=O)N1Cc2cc3c(cc2C[C@H]1C(=O)N[C@@H](Cc1ccc(-c2ccc(C#N)cc2)cc1)C(=O)O)OCC(c1ccc(OCc2ccc(Cl)c(Cl)c2)cc1)O3", "note": "(stereo in doubt) [Example 110, (S)-3-(4′-Cyano-biphenyl-4-yl)-2-({(S)-3-[4-(3,4-dichloro-benzyloxy)-phenyl]-7-[4-methyl-2-(3-methyl-butylamino)-thiazole-5-sulfonyl]-2,3,6,7,8,9-hexahydro-[1,4]dioxino[2,3-g]isoquinoline-8-carbonyl}-amino)-propionic acid]", "EC50": 0.356}, {"smiles": "CC(=O)Nc1ccc(S(=O)(=O)N2Cc3cc4c(cc3C[C@H]2C(=O)N[C@@H](Cc2ccc(-c3ccc(C#N)cc3)cc2)C(=O)O)OCC(c2ccc(OCc3ccc(Cl)c(Cl)c3)cc2)O4)c(C)c1", "note": "(stereo in doubt) [Example 111, (S)-2-({(S)-7-(4-Acetylamino-2-methyl-benzenesulfonyl)-3-[4-(3,4-dichloro-benzyloxy)-phenyl]-2,3,6,7,8,9-hexahydro-[1,4]dioxino[2,3-g]isoquinoline-8-carbonyl}-amino)-3-(4′-cyano-biphenyl-4-yl)-propionic acid]", "EC50": 0.044}, {"smiles": "N#Cc1ccc(-c2ccc(C[C@H](NC(=O)[C@@H]3Cc4cc5c(cc4CN3S(=O)(=O)c3ccc(N4CCOCC4)nc3)OC(c3ccc(OCc4ccc(Cl)c(Cl)c4)cc3)CO5)C(=O)O)cc2)cc1", "note": "(stereo in doubt) [Example 112, (S)-3-(4′-Cyano-biphenyl-4-yl)-2-{[(S)-3-[4-(3,4-dichloro-benzyloxy)-phenyl]-7-(6-morpholin-4-yl-pyridine-3-sulfonyl)-2,3,6,7,8,9-hexahydro-[1,4]dioxino[2,3-g]isoquinoline-8-carbonyl]-amino}-propionic acid]", "EC50": 0.048}, {"smiles": "Cc1nc(NC(=O)C(C)C)sc1S(=O)(=O)N1Cc2cc3c(cc2C[C@H]1C(=O)N[C@@H](Cc1ccc(-c2ccc(C#N)cc2)cc1)C(=O)O)OCC(c1ccc(OCc2ccc(Cl)c(Cl)c2)cc1)O3", "note": "(stereo in doubt) [Example 114, (S)-3-(4′-Cyano-biphenyl-4-yl)-2-{[(S)-3-[4-(3,4-dichloro-benzyloxy)-phenyl]-7-(2-isobutyrylamino-4-methyl-thiazole-5-sulfonyl)-2,3,6,7,8,9-hexahydro-[1,4]dioxino[2,3-g]isoquinoline-8-carbonyl]-amino}-propionic acid]", "EC50": 0.232}, {"smiles": "CC(=O)Nc1ccc(S(=O)(=O)N2Cc3cc4c(cc3C[C@H]2C(=O)N[C@@H](Cc2ccc(-c3ccc(C#N)cc3)cc2)C(=O)O)OCC(c2ccc(OCc3ccc(Cl)c(Cl)c3)cc2)O4)cc1", "note": "(stereo in doubt) [Example 115, (S)-2-({(S)-7-(4-Acetylamino-benzenesulfonyl)-3-[4-(3,4-dichloro-benzyloxy)-phenyl]-2,3,6,7,8,9-hexahydro-[1,4]dioxino[2,3-g]isoquinoline-8-carbonyl}-amino)-3-(4′-cyano-biphenyl-4-yl)-propionic acid]", "EC50": 0.163}, {"smiles": "Cc1nc(N)sc1C(=O)N1Cc2cc3c(cc2C[C@H]1C(=O)N[C@@H](Cc1ccc(-c2ccc(C#N)cc2)cc1)C(=O)O)OCC(c1ccc(OCc2ccc(Cl)c(Cl)c2)cc1)O3", "note": "(stereo in doubt) [Example 126, (S)-2-({(S)-7-(2-Amino-4-methyl-thiazole-5-carbonyl)-3-[4-(3,4-dichloro-benzyloxy)-phenyl]-2,3,6,7,8,9-hexahydro-[1,4]dioxino[2,3-g]isoquinoline-8-carbonyl}-amino)-3-(4′-cyano-biphenyl-4-yl)-propionic acid]", "EC50": 0.312}, {"smiles": "Cc1noc(C)c1S(=O)(=O)N1Cc2cc3c(cc2C[C@H]1C(=O)N[C@@H](Cc1ccc(-c2ccc(C#N)cc2)cc1)C(=O)O)OCC(c1ccc(OCc2ccc(Cl)c(Cl)c2)cc1)O3", "note": "(stereo in doubt) [Example 128, (S)-3-(4′-Cyano-biphenyl-4-yl)-2-{[(S)-3-[4-(3,4-dichloro-benzyloxy)-phenyl]-7-(3,5-dimethyl-isoxazole-4-sulfonyl)-2,3,6,7,8,9-hexahydro-[1,4]dioxino[2,3-g]isoquinoline-8-carbonyl]-amino}-propionic acid]", "EC50": 0.178}]}]}
